How the values were obtained:
[1] = target: CYP125A3 (Mycolicibacterium smegmatis, UniProt A0R4Y3); assay: biochemical; assay type: binding, Mycobacterium smegmatis mc2 155; details: for Soret band position after ligand addition: CYP125A3 3 μM, ligand 50 μM, resting Soret 393 nm with shoulder at 415 nm
[2] = target: T1, CYP142A2 (Mycolicibacterium smegmatis, UniProt A0R4Q6); assay: biochemical
[3] = target: T1, CYP142A2; details: CYP142A2 3 μM, ligand 50 μM; resting Soret 418 nm

T1 sequence (A0R4Q6 whole entry): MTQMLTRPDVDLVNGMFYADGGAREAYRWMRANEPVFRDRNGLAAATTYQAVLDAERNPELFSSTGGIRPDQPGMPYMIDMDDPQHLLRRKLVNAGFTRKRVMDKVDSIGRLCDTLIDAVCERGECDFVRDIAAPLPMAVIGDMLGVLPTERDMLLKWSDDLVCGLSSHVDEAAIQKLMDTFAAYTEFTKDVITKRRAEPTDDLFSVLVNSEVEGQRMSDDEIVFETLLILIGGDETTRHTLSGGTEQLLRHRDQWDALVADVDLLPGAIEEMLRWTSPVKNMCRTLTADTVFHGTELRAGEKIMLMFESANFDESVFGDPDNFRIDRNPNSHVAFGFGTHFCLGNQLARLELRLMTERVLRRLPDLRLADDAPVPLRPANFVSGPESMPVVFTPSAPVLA
CYP125A3, sequence (A0R4Y3 whole entry): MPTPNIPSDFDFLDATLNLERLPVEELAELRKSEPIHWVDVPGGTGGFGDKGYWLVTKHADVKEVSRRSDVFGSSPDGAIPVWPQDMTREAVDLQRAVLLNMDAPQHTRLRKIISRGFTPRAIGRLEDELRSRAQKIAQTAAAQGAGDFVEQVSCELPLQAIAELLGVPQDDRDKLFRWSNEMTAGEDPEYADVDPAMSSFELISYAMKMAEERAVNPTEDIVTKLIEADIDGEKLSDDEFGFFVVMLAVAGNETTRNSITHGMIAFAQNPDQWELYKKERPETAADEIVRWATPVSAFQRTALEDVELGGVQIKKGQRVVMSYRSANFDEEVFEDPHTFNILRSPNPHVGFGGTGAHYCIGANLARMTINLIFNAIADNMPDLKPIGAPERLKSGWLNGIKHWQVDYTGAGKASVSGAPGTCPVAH

| SMILES | Kd [1] [µM] | Kd [2] [µM] | Soret band position after ligand addition [3] [nm] | Soret band position after ligand addition [1] [nm] |
| --- | --- | --- | --- | --- |
| CC(C)CCC[C@@H](C)[C@H]1CC[C@H]2[C@@H]3CCC4=CC(=O)CC[C@]4(C)[C@H]3CC[C@]12C [Cholest-4-en-3-one] | 2.3 ± 1.4 | 0.52 ± 0.26 |  |  |
| CC(C)CCC[C@@H](C)[C@H]1CC[C@H]2[C@@H]3CC=C4C[C@@H](O)CC[C@]4(C)[C@H]3CC[C@]12C [Cholesterol] | 1.1 ± 0.5 | 0.14 ± 0.07 | 393 | 393 |
| Clc1ccccc1C(c1ccccc1)(c1ccccc1)n1ccnc1 [Clotrimazole] | 14.5 ± 1.58 | 16.2 ± 0.75 |  |  |
| Clc1ccc(COC(Cn2ccnc2)c2ccc(Cl)cc2Cl)cc1 (centres unmarked) [Econazole] | 7.38 ± 0.71 | 7.4 ± 0.52 | 422 | 415 |
| Clc1ccc(COC(Cn2ccnc2)c2ccc(Cl)cc2Cl)c(Cl)c1 (centres unmarked) [Miconazole] | 1.66 ± 0.21 | 6.58 ± 0.7 |  |  |

— PMC3706556 (Environmental microbiology, 2013)
